Data from patent US10967078B2, “Radiolabelled mGluR2 PET ligands” (Janssen Pharmaceutica NV, priority 2014, dated 2021).

Columns and labels:
mGluR2 = target: T1, mGluR2 (Mus musculus, UniProt Q14BI2); assay: In vitro autoradiography binding on mGluR2 KO and WT mouse brain sections
T1 construct: horizontal sections of mGluR2 KO and WT mouse brain and of normal female Wistar rat brain; from tissue; host or cells: mouse brain sections (WT and mGluR2 KO), 20 µm
Method: In vitro autoradiography studies were performed on horizontal sections of mGluR2 KO and WT mouse brain and of normal female Wistar rat brain (20 μm). The sections were preincubated in 50 mM Tris-HCl (MgCl2 2 mM, CaCl2 2 mM; pH 7.0) for 10 min (two times) at room temperature and dried. Next, the brain sections were incubated with tracer [^11C]-2, [^11C]-5, [^11C]-4, [^11C]-1 or [^18F]-3 diluted in the same Tris-HCl buffer as used for the preincubation additionally containing 0.1% BSA or with this tracer solution in the presence of 10 μM Co. No. 2 or Co. No. 1. The mouse brain sections were incubated with 17 kBq of carbon-11 labeled tracer and 1.7 kBq of fluorine-18 labeled tracer. For the rat brain sections this was 44 kBq of carbon-11 labeled tracer and 0.44 kBq of fluorine-18 labeled tracer. After 30 min of incubation, the brain sections were washed three times for 5 min in ice-cold Tris-HCl 50 mM ((MgCl2 2 mM, CaCl2 2 mM; pH 7.0+0.1% BSA buffer). After a quick dip in purified ice-cold water, the slides were dried. Autoradiograms were obtained by exposing the slides overnight to a high-performance phosphor storage screen (super-resolution screen; Perkin Elmer, Waltham, USA). The screens were read using a Cyclone Plus system (Perkin Elmer) and analysed using Optiquant software (Perkin Elmer). The radioactivity concentration in the autoradiograms was expressed in digital light units (DLU)/mm^2.
To obtain additional information on the specificity of the tracer binding to mGluR2, in vitro autoradiography binding studies were performed on mGluR2 KO and WT mouse brain sections and on normal rat brain sections in presence or absence of a high concentration of mGluR2 NAM compounds (Co. No. 1 or Co. No. 2).

mGlu3 = mGlu3 (Homo sapiens, UniProt Q14832); assay: Selectivity for mGluR2 versus mGluR3; type: biochemical
[1] = WT mouse cortex, block with 10 μM Co. No. 1
[2] = WT mouse striatum, block with 10 μM Co. No. 1

T1 sequence (Q14BI2 19-872): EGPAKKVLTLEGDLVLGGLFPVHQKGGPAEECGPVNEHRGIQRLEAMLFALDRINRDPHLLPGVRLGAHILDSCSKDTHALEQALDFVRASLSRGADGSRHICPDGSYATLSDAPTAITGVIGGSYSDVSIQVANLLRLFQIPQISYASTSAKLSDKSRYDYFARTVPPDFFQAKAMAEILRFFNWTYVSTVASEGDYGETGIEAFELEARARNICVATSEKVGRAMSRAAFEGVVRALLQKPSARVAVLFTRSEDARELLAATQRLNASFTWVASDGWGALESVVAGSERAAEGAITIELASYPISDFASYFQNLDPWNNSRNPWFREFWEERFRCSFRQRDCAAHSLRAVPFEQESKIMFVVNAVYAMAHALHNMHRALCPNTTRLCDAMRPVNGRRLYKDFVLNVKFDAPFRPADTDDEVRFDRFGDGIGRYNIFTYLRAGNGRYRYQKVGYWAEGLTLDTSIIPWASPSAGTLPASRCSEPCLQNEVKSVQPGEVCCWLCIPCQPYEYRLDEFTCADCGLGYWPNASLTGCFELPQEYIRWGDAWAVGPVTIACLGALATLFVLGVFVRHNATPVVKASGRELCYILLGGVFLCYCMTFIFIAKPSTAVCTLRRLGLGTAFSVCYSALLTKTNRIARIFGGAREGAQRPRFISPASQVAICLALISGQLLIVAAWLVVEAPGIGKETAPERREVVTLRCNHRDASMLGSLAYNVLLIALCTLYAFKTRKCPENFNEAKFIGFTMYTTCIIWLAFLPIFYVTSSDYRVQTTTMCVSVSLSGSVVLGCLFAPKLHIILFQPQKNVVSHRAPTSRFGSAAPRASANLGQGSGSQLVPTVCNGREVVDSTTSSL
mGlu3, sequence (Q14832 23-879): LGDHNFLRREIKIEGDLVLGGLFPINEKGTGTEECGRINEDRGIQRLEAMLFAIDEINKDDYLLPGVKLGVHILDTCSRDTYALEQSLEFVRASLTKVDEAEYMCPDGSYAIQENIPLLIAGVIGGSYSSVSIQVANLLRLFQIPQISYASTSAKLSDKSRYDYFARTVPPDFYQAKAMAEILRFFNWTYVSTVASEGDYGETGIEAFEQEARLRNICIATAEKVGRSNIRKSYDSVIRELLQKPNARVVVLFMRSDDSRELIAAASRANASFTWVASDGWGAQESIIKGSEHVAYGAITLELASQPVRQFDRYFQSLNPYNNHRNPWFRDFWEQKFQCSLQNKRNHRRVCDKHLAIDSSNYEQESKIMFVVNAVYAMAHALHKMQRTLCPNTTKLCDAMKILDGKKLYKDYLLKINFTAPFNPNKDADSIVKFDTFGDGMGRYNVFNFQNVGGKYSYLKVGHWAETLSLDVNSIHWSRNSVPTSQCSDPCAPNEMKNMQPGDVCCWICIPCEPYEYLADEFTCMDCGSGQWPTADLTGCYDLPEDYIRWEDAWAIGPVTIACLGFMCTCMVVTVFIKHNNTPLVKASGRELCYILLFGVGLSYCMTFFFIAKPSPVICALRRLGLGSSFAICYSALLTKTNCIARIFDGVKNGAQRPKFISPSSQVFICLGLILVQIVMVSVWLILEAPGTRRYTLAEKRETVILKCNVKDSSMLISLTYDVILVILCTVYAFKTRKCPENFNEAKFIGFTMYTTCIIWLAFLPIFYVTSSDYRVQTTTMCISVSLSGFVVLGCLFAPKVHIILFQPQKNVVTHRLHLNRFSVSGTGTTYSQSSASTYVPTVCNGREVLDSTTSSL

| SMILES | Cortex WT (TB)/cortex WT (block Co. No. 1) (mGluR2; [1]) | spec binding, cortex WT (mGluR2; [1]) | Striatum WT (TB)/striatum WT (block Co. No. 1) (mGluR2; [2]) | spec binding, striatum WT (mGluR2; [2]) | difference in tracer binding to WT and mGluR2 KO mouse brain sections (mGluR2; in words) | Cortex WT (TB)/Cortex KO (TB) (mGluR2; total binding ratio, WT versus mGluR2 KO mouse brain sections, cortex) | Striatum WT (TB)/Striatum KO (TB) (mGluR2; total binding ratio, WT versus mGluR2 KO mouse brain sections, striatum) | melting point [°C] | Selectivity over mGlu3 (mGlu3) |
| --- | --- | --- | --- | --- | --- | --- | --- | --- | --- |
| C[C@H]1CN(c2ccc(S(F)(F)(F)(F)F)cc2)C(=O)c2c(-c3ccnc(N[11CH3])c3)cnn21 [[^11C]-4] | ~3.8 | (~74% spec | ~2.6 | (~62% spec | less pronounced | ~2.6 | ~2.2 | – | – |
| CNc1cc(-c2cnn3c2C(=O)N(c2ccc(C(F)(F)F)c(OC)n2)C[C@@H]3C)ccn1 [Co. No. 5, (7S)-5-[6-Methoxy-5-(trifluoromethyl)-2-pyridyl]-7-methyl-3-[2-(methylamino)-4-pyridyl]-6,7-dihydropyrazolo[1,5-a]pyrazin-4-one] | – | – | – | – | – | – | – | 125.82 | 234.4 |
